{
  "source": "PubChem BioAssay (NCI)",
  "assay_in_all_cases": "NCI anticancer screen, dose series, 48 h",
  "key": {"IGROV1 ovarian": {"tested_on": "IGROV1 ovarian"}, "K-562 leukemia": {"tested_on": "K-562 leukemia"}, "SK-MEL-2 melanoma": {"tested_on": "SK-MEL-2 melanoma"}, "CAKI-1 renal": {"tested_on": "CAKI-1 renal"}, "PC-3 prostate": {"tested_on": "PC-3 prostate"}, "UO-31 renal": {"tested_on": "UO-31 renal"}, "SNB-19 CNS": {"tested_on": "SNB-19 CNS"}, "U251 CNS": {"tested_on": "U251 CNS"}, "UACC-62 melanoma": {"tested_on": "UACC-62 melanoma"}, "NCI-H23 lung": {"tested_on": "NCI-H23 lung"}, "SK-OV-3 ovarian": {"tested_on": "SK-OV-3 ovarian"}, "RPMI-8226 leukemia": {"tested_on": "RPMI-8226 leukemia"}, "MCF7 breast": {"tested_on": "MCF7 breast"}, "T-47D breast": {"tested_on": "T-47D breast"}, "A549 NSCLC": {"tested_on": "A549 NSCLC"}, "HCT-116 colon": {"tested_on": "HCT-116 colon"}, "UACC-257 melanoma": {"tested_on": "UACC-257 melanoma"}, "HOP-62 NSCLC": {"tested_on": "HOP-62 NSCLC"}, "OVCAR-4 ovarian": {"tested_on": "OVCAR-4 ovarian"}, "HT29 colon": {"tested_on": "HT29 colon"}, "HOP-92 NSCLC": {"tested_on": "HOP-92 NSCLC"}, "HL-60(TB) leukemia": {"tested_on": "HL-60(TB) leukemia"}, "HCT-15 colon": {"tested_on": "HCT-15 colon"}, "M14 melanoma": {"tested_on": "M14 melanoma"}, "MDA-MB-231 breast": {"tested_on": "MDA-MB-231 breast"}, "SF-539 CNS": {"tested_on": "SF-539 CNS"}, "HCC-2998 colon": {"tested_on": "HCC-2998 colon"}, "SR leukemia": {"tested_on": "SR leukemia"}, "SF-268 CNS": {"tested_on": "SF-268 CNS"}},
  "note": "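These data come from cells grown in 96-well plates and exposed to compound for 48 hours at five concentrations. GI50: concentration for 50% inhibition of growth. TGI marks complete inhibition of growth.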",
  "data": [
    {"smiles": "Nc1c(C(=O)c2cccc(OC[C@@H](O)CO)c2)cnn1-c1ccc(F)cc1", "values": [
      {"measurement": "GI50", "setting": "IGROV1 ovarian", "result": "> 25", "unit": "µM"},
      {"measurement": "TGI", "setting": "IGROV1 ovarian", "result": "> 25", "unit": "µM"},
      {"measurement": "GI50", "setting": "K-562 leukemia", "result": "> 25", "unit": "µM"},
      {"measurement": "TGI", "setting": "K-562 leukemia", "result": "> 25", "unit": "µM"},
      {"measurement": "GI50", "setting": "SK-MEL-2 melanoma", "result": "> 25", "unit": "µM"},
      {"measurement": "TGI", "setting": "SK-MEL-2 melanoma", "result": "> 25", "unit": "µM"},
      {"measurement": "GI50", "setting": "CAKI-1 renal", "result": "> 25", "unit": "µM"},
      {"measurement": "TGI", "setting": "CAKI-1 renal", "result": "> 25", "unit": "µM"},
      {"measurement": "GI50", "setting": "PC-3 prostate", "result": "> 25", "unit": "µM"},
      {"measurement": "TGI", "setting": "PC-3 prostate", "result": "> 25", "unit": "µM"},
      {"measurement": "GI50", "setting": "UO-31 renal", "result": "> 25", "unit": "µM"},
      {"measurement": "TGI", "setting": "UO-31 renal", "result": "> 25", "unit": "µM"},
      {"measurement": "GI50", "setting": "SNB-19 CNS", "result": "> 25", "unit": "µM"},
      {"measurement": "TGI", "setting": "SNB-19 CNS", "result": "> 25", "unit": "µM"},
      {"measurement": "GI50", "setting": "U251 CNS", "result": "> 25", "unit": "µM"},
      {"measurement": "TGI", "setting": "U251 CNS", "result": "> 25", "unit": "µM"},
      {"measurement": "GI50", "setting": "UACC-62 melanoma", "result": "> 25", "unit": "µM"},
      {"measurement": "TGI", "setting": "UACC-62 melanoma", "result": "> 25", "unit": "µM"},
      {"measurement": "GI50", "setting": "NCI-H23 lung", "result": "> 25", "unit": "µM"},
      {"measurement": "TGI", "setting": "NCI-H23 lung", "result": "> 25", "unit": "µM"},
      {"measurement": "GI50", "setting": "SK-OV-3 ovarian", "result": "> 25", "unit": "µM"},
      {"measurement": "TGI", "setting": "SK-OV-3 ovarian", "result": "> 25", "unit": "µM"},
      {"measurement": "GI50", "setting": "RPMI-8226 leukemia", "result": "> 25", "unit": "µM"},
      {"measurement": "TGI", "setting": "RPMI-8226 leukemia", "result": "> 25", "unit": "µM"},
      {"measurement": "GI50", "setting": "MCF7 breast", "result": "> 25", "unit": "µM"},
      {"measurement": "TGI", "setting": "MCF7 breast", "result": "> 25", "unit": "µM"},
      {"measurement": "GI50", "setting": "T-47D breast", "result": "> 25", "unit": "µM"},
      {"measurement": "TGI", "setting": "T-47D breast", "result": "> 25", "unit": "µM"},
      {"measurement": "GI50", "setting": "A549 NSCLC", "result": "> 25", "unit": "µM"},
      {"measurement": "TGI", "setting": "A549 NSCLC", "result": "> 25", "unit": "µM"},
      {"measurement": "GI50", "setting": "HCT-116 colon", "result": "> 25", "unit": "µM"},
      {"measurement": "TGI", "setting": "HCT-116 colon", "result": "> 25", "unit": "µM"},
      {"measurement": "GI50", "setting": "UACC-257 melanoma", "result": "> 25", "unit": "µM"},
      {"measurement": "TGI", "setting": "UACC-257 melanoma", "result": "> 25", "unit": "µM"},
      {"measurement": "GI50", "setting": "HOP-62 NSCLC", "result": "> 25", "unit": "µM"},
      {"measurement": "TGI", "setting": "HOP-62 NSCLC", "result": "> 25", "unit": "µM"},
      {"measurement": "GI50", "setting": "OVCAR-4 ovarian", "result": "> 20.9", "unit": "µM"},
      {"measurement": "TGI", "setting": "OVCAR-4 ovarian", "result": "> 25", "unit": "µM"},
      {"measurement": "GI50", "setting": "HT29 colon", "result": "> 25", "unit": "µM"},
      {"measurement": "TGI", "setting": "HT29 colon", "result": "> 25", "unit": "µM"},
      {"measurement": "GI50", "setting": "HOP-92 NSCLC", "result": "> 25", "unit": "µM"},
      {"measurement": "TGI", "setting": "HOP-92 NSCLC", "result": "> 25", "unit": "µM"},
      {"measurement": "GI50", "setting": "HL-60(TB) leukemia", "result": "> 25", "unit": "µM"},
      {"measurement": "TGI", "setting": "HL-60(TB) leukemia", "result": "> 25", "unit": "µM"},
      {"measurement": "GI50", "setting": "HCT-15 colon", "result": "> 25", "unit": "µM"},
      {"measurement": "TGI", "setting": "HCT-15 colon", "result": "> 25", "unit": "µM"},
      {"measurement": "GI50", "setting": "M14 melanoma", "result": "> 25", "unit": "µM"},
      {"measurement": "TGI", "setting": "M14 melanoma", "result": "> 25", "unit": "µM"},
      {"measurement": "GI50", "setting": "MDA-MB-231 breast", "result": "> 25", "unit": "µM"},
      {"measurement": "TGI", "setting": "MDA-MB-231 breast", "result": "> 25", "unit": "µM"},
      {"measurement": "GI50", "setting": "SF-539 CNS", "result": "> 25", "unit": "µM"},
      {"measurement": "TGI", "setting": "SF-539 CNS", "result": "> 25", "unit": "µM"},
      {"measurement": "GI50", "setting": "HCC-2998 colon", "result": "> 25", "unit": "µM"},
      {"measurement": "TGI", "setting": "HCC-2998 colon", "result": "> 25", "unit": "µM"},
      {"measurement": "GI50", "setting": "SR leukemia", "result": "> 25", "unit": "µM"},
      {"measurement": "TGI", "setting": "SR leukemia", "result": "> 25", "unit": "µM"},
      {"measurement": "GI50", "setting": "SF-268 CNS", "result": "> 25", "unit": "µM"}
    ]}
  ]
}
